Data reported in US10800776B2, “Fluorine-containing triazolopyridine, and manufacturing method, pharmaceutical composition, and application thereof” (SHANGHAI INSTITUTE OF MATERIA MEDICA, CHINESE ACADEMY OF …, priority 2016, dated 2020).

Legend:
mGluR2 = mGluR2 (Homo sapiens (Human), UniProt Q14416); test: In vitro activity test for mGluR2 (HDB Fluo-8 calcium fluorescence, HEK/mGluR2 cell line); type: cell-based
Excerpt: Experimental materials: HEK/mGluR2 cell line (human […] transfected HEK cell line), DMEM (FBS) medium, positive control LY487379 (purchased from sigma; CAS: to 352317-17-1)
Experimental instrument: FLIPR Tetra real-time fluorescence imaging analysis system
Experimental method: HDB Fluo-8 calcium fluorescence detection method
Experimental principle: HDB Fluo-8 calcium ion fluorescence detection method is a fast, simple and reliable fluorescence detection method of intracellular calcium concentration changes. The Fluo 8-AM fluorescent dye is an acetyl methyl ester derivative of Fluo 8 which can easily penetrate into the cell membrane by culture. The fluorescent dye in the cell will be hydrolyzed by intracellular esterase, the resulting Fluo 8 as a polar molecule, cannot easily pass through the lipid bimolecular membrane, and will be retained in the cell, and combine with calcium (Ca^2+) to produce fluoresces.
Cells expressing GPCR receptor protein (mGluR2) were first calibrated with a calcium ion sensitive fluorescent probe and then stimulated with the compound. After stimulation, the receptor activates the calcium ion mobilization, and the fluorescent probe captures the calcium ion to induce the fluorescence signal. The signal can be read by a fluoroscopy plate. The fluorescent plate reader contains a sample addition for compound addition, thus enabling the change of the fluorescence value of the compound be read in real time.

C57BL/6 mice = test: Mouse open field experiment; type: in vivo; conditions: for Central area dwell time (s) Mean ± SEM / Central area traveling distance percentage (%) Mean ± SEM / Total moving distance (cm) Mean ± SEM: 30 mg/kg i.p., 1 hour before, 30-minute test
Protocol: Experiment objectives: to observe the anti-anxiety effect of the test compound on the mice by open field experiment.
Experimental animals: male C57BL/6 mice, 10 weeks old, purchased from Beijing Huafukang Biotechnology Co., Ltd.
Animal rearing: The temperature in the animal room was maintained at 20-25° C., the humidity was maintained at 40-70%, and the photoperiod was 12 hours light and 12 hours dark. During feeding, the mice were housed in standard mouse cages, with colored labels on each cage clearly indicating the item number, and the basic information such as the responsible person, group, animal number and animal gender. All animals were given free access to pure water and standard certified rodent feed. Before the start of the experiment, the experimental animals were adapted to the feeding environment for at least one week.
The compound to be tested, intraperitoneally administered, 30 mg/kg.
Experimental principle: Based on the instincts of rodents tending to avoid light and fear of exploring open fields. When the experimental animals were first placed in the open field, the central area was a potential threat to the animals, while the peripheral area was relatively safe, and rats and mice were more likely to move along the perimeter of the field. Therefore, if the animal is of high anxiety level, it tends to stay in the peripheral area. Conversely, the number and time of exploration in the central area will increase.
Experimental grouping and administration: Experimental animals were randomly divided into 5 groups as follows:
During the 30-minute test period, the total distance traveled by the experimental animals, the central area dwell time, and the percentage of the central area travel distance will be detected and recorded.

ICR mice = test: Mouse swimming depression test; type: in vivo; conditions: for non-movement time (%) Mean ± SEM: orally, 1 hour before test
Protocol: Experiment objectives: to observe the effect of the test compound on the depressive status of mice
Experimental animals: ICR mice, 20-28 g, both male and female
Experimental equipment: plexiglass tube: cylindrical, 25 cm high, 15 cm inner diameter
Sample treatment: The test compounds were ground with 1% CMC (sodium carboxymethyl cellulose) to prepare a homogeneous solution. In vivo dose was 5 mg/kg, 10 mg/kg and 20 mg/kg, the compound was orally administrated at 0.1 ml/10 g volume/body weight. Positive control drugs (amitriptyline and fluoxetine) were dissolved with 0.9% saline, in vivo dose was 10 mg/kg, intraperitoneal injected at 0.1 ml/10 g volume/body weight. (Note: mice were given the compound after fasted for 8 hours without water-fasted.)
Experimental principle: The mouse is placed in a limited space which can not escape to swim, thus inducing animals to non-movement state which reflects the animal's desperate behavior.
Experimental Methods: mice were grouped randomly, 15 minutes swimming depression was modeled at the first day, and equivalent mice were selected. The second day of the test, 1 hour after the animals were orally administered the compound (0.5 hours after intraperitoneal injection) and then the animals were put in water to record the non-movement time in the later 4 min of 6 min.

Chain of mGluR2 (Q14416 19-872): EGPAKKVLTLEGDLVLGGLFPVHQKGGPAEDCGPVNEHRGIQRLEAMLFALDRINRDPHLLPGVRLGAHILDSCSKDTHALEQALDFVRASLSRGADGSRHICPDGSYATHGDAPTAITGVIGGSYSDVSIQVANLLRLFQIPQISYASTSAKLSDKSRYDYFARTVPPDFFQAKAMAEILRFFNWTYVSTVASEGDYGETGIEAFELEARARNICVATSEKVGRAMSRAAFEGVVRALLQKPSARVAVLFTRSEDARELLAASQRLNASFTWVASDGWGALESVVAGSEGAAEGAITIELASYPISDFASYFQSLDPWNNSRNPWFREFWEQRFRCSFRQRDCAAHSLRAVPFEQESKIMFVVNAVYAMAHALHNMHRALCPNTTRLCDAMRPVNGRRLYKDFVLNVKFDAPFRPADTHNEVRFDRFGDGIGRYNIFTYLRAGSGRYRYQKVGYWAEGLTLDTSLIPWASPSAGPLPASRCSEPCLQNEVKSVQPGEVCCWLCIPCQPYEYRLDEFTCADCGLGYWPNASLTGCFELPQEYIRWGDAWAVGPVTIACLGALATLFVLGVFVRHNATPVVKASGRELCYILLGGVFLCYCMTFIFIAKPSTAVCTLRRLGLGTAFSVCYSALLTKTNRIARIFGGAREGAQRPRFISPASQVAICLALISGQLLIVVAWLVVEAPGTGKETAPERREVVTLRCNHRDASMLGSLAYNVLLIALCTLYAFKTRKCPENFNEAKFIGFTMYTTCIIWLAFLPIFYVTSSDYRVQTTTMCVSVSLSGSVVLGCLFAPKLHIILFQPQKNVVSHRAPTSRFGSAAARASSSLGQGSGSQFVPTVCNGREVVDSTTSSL

Question: `COC(=O)c1ccc(-c2ccn3c(CC4CC4(F)F)nnc3c2Cl)c(F)c1` (centres unmarked) [Compound 45, Methyl 4-(8-Chloro-3-((2,2-difluorocyclopropyl)methyl)-[1,2,4]triazole[4,3-a]pyridin-7-yl)-3-fluorobenzoate] was tested. Which EC50 (mGluR2) did it give?
Answer: The EC50 was 0.0879 µM.

Question: What about the “Central area dwell time (s) Mean ± SEM” value (C57BL/6 mice) of the same compound?
Answer: Its value is 110 ± 13.0 s.

Question: And the “Central area traveling distance percentage (%) Mean ± SEM” value (C57BL/6 mice)?
Answer: Its value is 19.39 ± 1.63 %.

Question: What about the “Total moving distance (cm) Mean ± SEM” value (C57BL/6 mice) of the same compound?
Answer: Its value is 5043.2 ± 457.5 cm.

Question: What about the “central region's range of motion” value (C57BL/6 mice; dosage of 30 mg/kg) of the same compound?
Answer: The value was “significantly increase”.

Question: And the “non-movement time (%) Mean ± SEM” value (ICR mice; 5 mg/kg)?
Answer: The value was 63.99 ± 11.00%.

Question: What about the “non-movement time (%) Mean ± SEM” value (ICR mice; 10 mg/kg) of the same compound?
Answer: Its value is 34.88 ± 6.57%.

Question: And the “non-movement time (%) Mean ± SEM” value (ICR mice; 20 mg/kg)?
Answer: Its value is 56.29 ± 17.56%.

Question: And the “"no movement time" of swimming in mice (in words)” value (ICR mice; mouse, in vivo)?
Answer: Its value is “effectively shorten”.

Question: And the antidepressant effect (ICR mice; mouse, in vivo)?
Answer: The antidepressant effect was “significant antidepressant effect”.

Question: `FC1(F)CC1Cc1nnc2c(Cl)c(-c3ccc4c(c3)OCO4)ccn12` (centres unmarked) [Compound 50, 7-(Benzo[d][1,3]dioxol-5-yl)-8-chloro-3-((2,2-difluorocyclopropyl)methyl)-[1,2,4]triazole [4,3-a]pyridine] was tested. Which EC50 (mGluR2) did it give?
Answer: The EC50 was 0.0623 µM.

Question: What about the “Central area dwell time (s) Mean ± SEM” value (C57BL/6 mice) of the same compound?
Answer: The value was 81.1 ± 10.2 s.

Question: And the “Central area traveling distance percentage (%) Mean ± SEM” value (C57BL/6 mice)?
Answer: Its value is 13.91 ± 0.96%.

Question: What about the “Total moving distance (cm) Mean ± SEM” value (C57BL/6 mice) of the same compound?
Answer: Its value is 4407.2 ± 390.5 cm.

Question: And the “non-movement time (%) Mean ± SEM” value (ICR mice; 5 mg/kg)?
Answer: Its value is 84.06 ± 10.65%.

Question: What about the “non-movement time (%) Mean ± SEM” value (ICR mice; 10 mg/kg) of the same compound?
Answer: The value was 52.10 ± 15.86%.

Question: And the “non-movement time (%) Mean ± SEM” value (ICR mice; 20 mg/kg)?
Answer: The value was 57.08 ± 17.80%.
